# In patent publication US20130143929A1, “FUNGICIDAL IMIDAZOLES” (EI DU PONT DE NEMOURS AND COMPANY, priority 2010, published 2013):
# Marks after values point to notes of the source that are not given here.
# Experiments:
# Format in all cases: in vivo
# [1] = system: Septoria tritici (the causal agent of wheat leaf blotch); experiment: Test B: wheat leaf blotch, preventive spray on wheat seedlings, visual disease rating; details: wheat leaf blotch, preventive spray on wheat seedlings
# In short: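 Wheat seedlings sprayed to run-off with compound suspension (acetone/water with 250 ppm Trem 014; 200 ppm ≈ 800 g/ha, some at 40 ppm), inoculated next day with Septoria tritici spores. 48 h saturated humidity at 24 °C, then 19 days at 20 °C; visual rating, 100 = full control.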
# [2] = system: Blumeria graminis f. sp. tritici (also known as Erysiphe graminis f. sp. tritici, the causal agent of wheat powdery mildew); experiment: Test D: wheat powdery mildew, preventive spray on wheat seedlings, visual disease rating; details: wheat powdery mildew, preventive spray on wheat seedlings
# In short: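 Compound suspended in acetone/water (50/50) with 250 ppm Trem 014 and sprayed to run-off on wheat seedlings (200 ppm ≈ 800 g/ha), then inoculated next day with spore dust. Disease rated visually after 8 days at 20 °C as % control relative to untreated plants (0-100).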
# [3] = system: Puccinia recondite f. sp. tritici (the causal agent of wheat leaf rust); experiment: Test A: wheat leaf rust, preventive spray on wheat seedlings, visual disease rating; details: wheat leaf rust, preventive spray on wheat seedlings
# In short: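 Wheat seedlings were sprayed to run-off with compound suspended in acetone/water containing 250 ppm Trem 014 (200 ppm ≈ 800 g/ha; some at 40 ppm). Puccinia recondite spores were inoculated the next day. Plants were held 24 h saturated at 20° C, then 7 days at 20° C, and disease control was rated visually on a 0–100 scale against controls.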
# [4] = system: Botrytis cinerea (the causal agent of tomato Botrytis); experiment: Test C: tomato Botrytis, preventive spray on tomato seedlings, visual disease rating; details: tomato Botrytis, preventive spray on tomato seedlings
# In short: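 Test suspension (acetone/water with 250 ppm Trem 014; 200 ppm equivalent to 800 g/ha) sprayed to run-off on tomato seedlings; B. cinerea spores inoculated next day. After 48 h saturated humidity at 20° C then 3 days at 24° C, disease rated visually as % control relative to untreated controls (0–100).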
# [5] = no asterisk (standard test suspension concentration, not 40 ppm)
# [6] = asterisk: 40 ppm test suspension
smiles,measurement,setting,value
Cc1nc(Cl)n(-c2ccc(F)cc2F)c1C(O)c1ccc(F)cc1F (stereo not shown) [compound 162],"Test B rating (100 = 100% disease control, 0 = no disease control relative to the controls)",[1]; [5],100%
same,"Test D rating (100 = 100% disease control, 0 = no disease control relative to the controls)",[2]; [5],98%
same,"Test A rating (100 = 100% disease control, 0 = no disease control relative to the controls)",[3]; [5],100%
same,"Test C rating (100 = 100% disease control, 0 = no disease control relative to the controls)",[4]; [5],100%
Cc1nc(Cl)n(-c2ccc(F)cc2F)c1C(O)c1ccc(Cl)cc1 (stereo not shown) [compound 163],"Test B rating (100 = 100% disease control, 0 = no disease control relative to the controls)",[1]; [5],100%
same,"Test D rating (100 = 100% disease control, 0 = no disease control relative to the controls)",[2]; [5],13%
same,"Test A rating (100 = 100% disease control, 0 = no disease control relative to the controls)",[3]; [5],98%
same,"Test C rating (100 = 100% disease control, 0 = no disease control relative to the controls)",[4]; [5],100%
Cc1cc(C#N)ccc1C(O)c1c(Cl)nc(C)n1-c1c(F)cccc1F (stereo not shown) [compound 164],"Test B rating (100 = 100% disease control, 0 = no disease control relative to the controls)",[1]; [6],100* %
same,"Test D rating (100 = 100% disease control, 0 = no disease control relative to the controls)",[2]; [6],0* %
same,"Test A rating (100 = 100% disease control, 0 = no disease control relative to the controls)",[3]; [6],93* %
same,"Test C rating (100 = 100% disease control, 0 = no disease control relative to the controls)",[4]; [6],0* %
Cc1cc(C#N)ccc1C(O)c1c(Br)nc(C)n1-c1c(F)cccc1F (stereo not shown) [compound 165],"Test B rating (100 = 100% disease control, 0 = no disease control relative to the controls)",[1]; [6],100* %
same,"Test D rating (100 = 100% disease control, 0 = no disease control relative to the controls)",[2]; [6],13* %
same,"Test A rating (100 = 100% disease control, 0 = no disease control relative to the controls)",[3]; [6],80* %
same,"Test C rating (100 = 100% disease control, 0 = no disease control relative to the controls)",[4]; [6],8* %
Cc1nc(Cl)c(C(O)c2ccc(F)cc2Cl)n1-c1c(F)cc(F)cc1F (stereo not shown) [compound 166],"Test B rating (100 = 100% disease control, 0 = no disease control relative to the controls)",[1]; [6],100* %
same,"Test D rating (100 = 100% disease control, 0 = no disease control relative to the controls)",[2]; [6],43* %
same,"Test A rating (100 = 100% disease control, 0 = no disease control relative to the controls)",[3]; [6],100* %
same,"Test C rating (100 = 100% disease control, 0 = no disease control relative to the controls)",[4]; [6],100* %
Cc1nc(C)n(-c2c(F)cc(F)cc2F)c1C(O)c1ccc(F)cc1Cl (stereo not shown) [compound 169],"Test B rating (100 = 100% disease control, 0 = no disease control relative to the controls)",[1]; [6],100* %
same,"Test D rating (100 = 100% disease control, 0 = no disease control relative to the controls)",[2]; [6],0* %
same,"Test A rating (100 = 100% disease control, 0 = no disease control relative to the controls)",[3]; [6],100* %
same,"Test C rating (100 = 100% disease control, 0 = no disease control relative to the controls)",[4]; [6],40* %
Cc1ncc(C(O)c2c(F)cc(F)cc2F)n1-c1ccc(F)cc1Cl (stereo not shown) [compound 170],"Test B rating (100 = 100% disease control, 0 = no disease control relative to the controls)",[1]; [5],73%
same,"Test D rating (100 = 100% disease control, 0 = no disease control relative to the controls)",[2]; [5],0%
same,"Test A rating (100 = 100% disease control, 0 = no disease control relative to the controls)",[3]; [5],99%
same,"Test C rating (100 = 100% disease control, 0 = no disease control relative to the controls)",[4]; [5],63%
Cc1ncc(C(O)c2ccc(F)cc2Cl)n1-c1ccc(F)cc1Cl (stereo not shown) [compound 171],"Test B rating (100 = 100% disease control, 0 = no disease control relative to the controls)",[1]; [5],100%
same,"Test D rating (100 = 100% disease control, 0 = no disease control relative to the controls)",[2]; [5],0%
same,"Test A rating (100 = 100% disease control, 0 = no disease control relative to the controls)",[3]; [5],100%
same,"Test C rating (100 = 100% disease control, 0 = no disease control relative to the controls)",[4]; [5],95%
Cc1nc(Br)c(C(O)c2ccc(Cl)cc2)n1-c1ccc(F)cc1Br (stereo not shown) [compound 172],"Test B rating (100 = 100% disease control, 0 = no disease control relative to the controls)",[1]; [5],100%
same,"Test D rating (100 = 100% disease control, 0 = no disease control relative to the controls)",[2]; [5],90%
same,"Test A rating (100 = 100% disease control, 0 = no disease control relative to the controls)",[3]; [5],100%
same,"Test C rating (100 = 100% disease control, 0 = no disease control relative to the controls)",[4]; [5],100%
Cc1cc(F)ccc1C(O)c1c(Br)nc(C)n1-c1ccc(F)cc1Br (stereo not shown) [compound 173],"Test B rating (100 = 100% disease control, 0 = no disease control relative to the controls)",[1]; [5],100%
same,"Test D rating (100 = 100% disease control, 0 = no disease control relative to the controls)",[2]; [5],48%
same,"Test A rating (100 = 100% disease control, 0 = no disease control relative to the controls)",[3]; [5],99%
same,"Test C rating (100 = 100% disease control, 0 = no disease control relative to the controls)",[4]; [5],16%
